{
  "source": "patent US20050261246A1",
  "about": "“Methods for treating inflammatory and autoimmune diseases” (priority 2004, published 2005)",
  "tested_on": "Lewis rats with Adjuvant-Induced Arthritis",
  "experiment": "Adjuvant-induced arthritis (AA) rat model: footpad width, radiographs, spleen weight",
  "type": "in vivo",
  "description": "Summary: Adjuvant-Induced Arthritis (“AA”) was induced by intradermal injection of complete Freund's adjuvant (CFA) into the base of the tail of Lewis rats. Controls received intradermal injections of the arthritogenic antigen, M. butyricum suspended in saline. […] AA and control rats were given once-daily intraperitoneal (i.p.) injections of narcistatin (5 mg/Kg/day, in 250 μl sterile saline), vehicle, or no treatment initiated at disease onset and continued through severe disease.\nAdult male Lewis rats (200-250 g) were purchased from Charles River Laboratories, Raleigh, N.C. and housed two per cage. The animals were allowed to acclimate to the Sun Health Research Institute's vivarium for 7 days prior to the start of the experiment. The animals were maintained on a 12-h off/on light schedule. For AA rats rodent Diet (Purina Lab Diet 5001) was placed in the bottom of the cage and water was supplied using long-stemmed sipper tubes for easy access to food and water. […] Animals were weighed and observed daily to ensure adequate weight gain and good general health. Body weights and footpad measures were started 1 week prior to the first adjuvant injection to acclimate the animals to these mild stresses and obtain baseline data. Other than the development of arthritis, the good health of the animals was maintained throughout the course of the experiments. Protocols for the use and care of the animals in the study were approved prior to beginning the experiments by the Sun Health Research Institute Animal Use and Care Committee and complied with NIH guidelines for the humane use and care of research animals. Dorsoplantar footpad measurements were completed every other day. Prior to sacrifice the animals were given a 1.0 ml intraperitoneal (i.p.) injection of 8% chloral hydrate in sterile saline and radiographs were taken of their hind limbs to assess disease severity. The animals were then sacrificed using an overdose of chloral hydrate.\nSodium narcistatin was synthesized as previously described (27). CFA was prepared by emulsifying Mycobacterium butyricum (0.03 g dried and heat killed; Difco, Detroit, Mich. in 10 ml sterile mineral oil). M. butyricum (0.03 g) also was suspended in 10 ml sterile saline. The CFA and M. butyricum in saline were prepared by grinding the M. butyricum with a mortar and pestle until the lyophilized bacteria had turned from a light beige to an eggshell white powder. The mineral oil or saline was then slowly worked into the heat-killed bacteria using the mortar and pestle. The suspensions were treated with a sonic dismembraner for 5 min to ensure that the bacterial cell wall remained suspended in the mineral oil or saline until the animal injections. While there is variability in severity of disease development between the batches of adjuvant, there is very little variability within each batch. All animals in each experiment were challenged with the same preparation of adjuvant and 100% of the animals developed arthritis with similar timing of disease onset.\nLewis rats were randomly assigned into five experimental groups of four animals per group. The experimental groups were 1) saline/M. Butyricum suspended in saline (non-arthritic; control for drug and antigen challenge), 2) sodium narcistatin/M. Butyricum suspended in saline (non-arthritic; drug control for antigen challenge), 3) no treatment-CFA (arthritic; control for stress of injections), 4) saline-CFA (arthritic; control for drug treatment), and 5) sodium-narcistatin-CFA (arthritic) treatments. The experiment was completed with an N=4 then repeated with an additional N=4. The data from each group in the first and repeated experiment were compared. No statistical differences between the findings from these repeat experiments were found; therefore, the data was combined to give an N=8 for each experimental group. CFA or saline/M. Butyricum injections were given on experimental day 1. […]",
  "key": {"[1]": {"details": "AA rats, 5 mg/Kg/day i.p., vs vehicle treated AA rats"}},
  "data": [
    {"compound": "O=C1N[C@@H]2C(=C[C@H](O)[C@H]3OP(=O)(O)O[C@H]32)c2cc3c(c(O)c21)OCO3", "note": "[SNS, sodium narcistatin]", "values": [
      {"measurement": "reduction of bone loss, as measured by radiographic analysis", "setting": "[1]", "value": "~50", "unit": "%"},
      {"measurement": "reduction of hind limb inflammation, as measured by dorsoplantar width", "setting": "[1]", "value": "~70", "unit": "%"},
      {"measurement": "time of disease onset", "setting": "CFA-challenged rats", "value": "did not change the time of disease onset"},
      {"measurement": "soft tissue swelling of the dorsoplantar footpads", "setting": "CFA-challenged rats, day 23 to day 28 post-immunization, vs vehicle-treated arthritic rats", "value": "significantly decreased the soft tissue swelling"},
      {"measurement": "redness and soft tissue swelling of hind limbs", "setting": "arthritic rats, daily treatment day 10 through day 28, photomicrographs day 28", "value": "dramatically decreased the redness and soft tissue swelling"},
      {"measurement": "bone destruction and cartilage loss in radiographs", "setting": "arthritic rats, day 28, vs saline-treated arthritic rats", "value": "decreases in bone destruction (mainly osteoporosis and erosions) and cartilage loss"},
      {"measurement": "radiographic scores of ankle joints", "setting": "arthritic rats, day 28, vs vehicle or no treatment, P<0.05", "value": "significantly lower radiographic scores"},
      {"measurement": "spleen weight, arthritic rats", "setting": "day 28, vs Saline-CFA", "value": "blocked this increase in spleen weight"},
      {"measurement": "spleen weight, antigen-challenged non-arthritic rats", "setting": "day 28, vs saline", "value": "did not differ"},
      {"measurement": "footpad width in non-arthritic animals", "setting": "non-arthritic, vehicle vs drug", "value": "no differences in footpad width"}
    ]}
  ]
}
